Test results: PubChem BioAssay AID330 (DTP/NCI, 2004)
Several values for one entry are separate records, joined by “and”; a condition that tells them apart may be missing. Equal values may be shown once. Inconclusive results and toxic doses are left out.

Test system: P388 leukemia ip, CD2F1 mice, survival T/C
Experiment: NCI In Vivo Anticancer Drug Screen. Data for tumor model P388 Leukemia (intraperitoneal) in CD2F1 (CDF1) mice
Details: endpoint: median survival time, higher = longer survival
In short: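 Mice carrying the transplanted tumor received test compound or vehicle. Survival was recorded in each group, and the value is the treated-group measurement divided by that of the vehicle-treated control group.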

[1] = dose: 50.0 mg/kg/injection, schedule: Q01DX005 (ip), vehicle: saline with Tween-80
[2] = dose: 100.0 mg/kg/injection, schedule: Q01DX005 (ip), vehicle: saline with Tween-80
[3] = dose: 200.0 mg/kg/injection, schedule: Q01DX005 (ip), vehicle: saline with Tween-80
[4] = dose: 50.0 mg/kg/injection, schedule: Q01DX009 (ip), vehicle: Klucel (hydroxypropylcellulose) (HPC)
[5] = dose: 100.0 mg/kg/injection, schedule: Q01DX009 (ip), vehicle: Klucel (hydroxypropylcellulose) (HPC)

What does the source list for c1ccc2c(NCCCCCCCCCCCCCCCCNc3c4ccccc4nc4ccccc34)c3ccccc3nc2c1?
T/C (dose: 0.62 mg/kg/injection, schedule: Q01DX009 (ip), vehicle: other): 98 % of control; T/C (dose: 1.25 mg/kg/injection, schedule: Q01DX009 (ip), vehicle: other): 101 % of control; T/C (dose: 2.5 mg/kg/injection, schedule: Q01DX009 (ip), vehicle: other): 105 % of control; T/C (dose: 5.0 mg/kg/injection, schedule: Q01DX009 (ip), vehicle: other): 109 % of control; T/C (dose: 10.0 mg/kg/injection, schedule: Q01DX009 (ip), vehicle: other): 108 % of control

COC(=O)c1cc(=O)c2scc(C)[n+]2[nH]1 was tested. Which T/C [1] did it give?
The T/C was 105 % of control.

What about the T/C [2] of the same compound?
The T/C was 100 % of control.

And the T/C [3]?
Its T/C is 100 % of control.

Which T/C (dose: 100.0 mg/kg/injection, schedule: Q01DX001 (ip), vehicle: Klucel (hydroxypropylcellulose) (HPC)) does the source give for Cn1c(=O)nc2n(-c3ccc(Cl)c(Cl)c3)c3ccccc3nc-2c1=O here?
The T/C was 107 % of control.

And the T/C (dose: 200.0 mg/kg/injection, schedule: Q01DX001 (ip), vehicle: Klucel (hydroxypropylcellulose) (HPC))?
Its T/C is 98 % of control.

What about the T/C (dose: 400.0 mg/kg/injection, schedule: Q01DX001 (ip), vehicle: Klucel (hydroxypropylcellulose) (HPC)) of the same compound?
Its T/C is 94 % of control.

With CC(C)CC(C(=O)O)N(CC(=O)O)CC(=O)O (stereo not drawn) as the compound, how does the T/C (dose: 12.5 mg/kg/injection, schedule: Q01DX005 (ip), vehicle: saline) read?
Its T/C is 97 % of control.

And the T/C (dose: 25.0 mg/kg/injection, schedule: Q01DX005 (ip), vehicle: saline)?
The T/C was 87 % of control.

What about the T/C (dose: 50.0 mg/kg/injection, schedule: Q01DX005 (ip), vehicle: saline) of the same compound?
Its T/C is 98 % of control.

With COc1cc2c(cc1Cc1ccc3c(c1)OCO3)OCO2 as the compound, how does the T/C (dose: 50.0 mg/kg/injection, schedule: Q01DX005 (ip), vehicle: Klucel (hydroxypropylcellulose) (HPC)) read?
Its T/C is 94 % of control.

And the T/C (dose: 100.0 mg/kg/injection, schedule: Q01DX005 (ip), vehicle: Klucel (hydroxypropylcellulose) (HPC))?
The T/C was 92 % of control.

What about the T/C (dose: 200.0 mg/kg/injection, schedule: Q01DX005 (ip), vehicle: Klucel (hydroxypropylcellulose) (HPC)) of the same compound?
The T/C was 89 % of control.

S=C1SC2(CCCC2)NC2=C1CCC2 was tested. Which T/C (dose: 50.0 mg/kg/injection, schedule: Q01DX009 (ip), vehicle: saline with Tween-80) did it give?
Its T/C is 90 % of control.

And the T/C (dose: 100.0 mg/kg/injection, schedule: Q01DX009 (ip), vehicle: saline with Tween-80)?
Its T/C is 93 % of control.

And the T/C (dose: 200.0 mg/kg/injection, schedule: Q01DX009 (ip), vehicle: saline with Tween-80)?
The T/C was 99 % of control.

How did the T/C (dose: 60.0 mg/kg/injection, schedule: Q01DX005 (ip), vehicle: saline with Tween-80) turn out when CC(C=O)[Se]c1ccccc1 (stereo not drawn) was run?
Its T/C is 100 % of control.

What does the source list for O=C(COc1ccc(Cl)cc1)NN1CCCCCC1?
T/C (dose: 7.5 mg/kg/injection, schedule: Q01DX005 (ip), vehicle: Klucel (hydroxypropylcellulose) (HPC)): 99 % of control; T/C (dose: 15.0 mg/kg/injection, schedule: Q01DX005 (ip), vehicle: Klucel (hydroxypropylcellulose) (HPC)): 98 % of control

With C=CC(C)(O)/C=C/C=C(\C)C(CC1OC1(C)C)OC(=O)/C(C)=C\C (stereo not drawn) as the compound, how does the T/C [4] read?
The T/C was 95 % of control.

What about the T/C [5] of the same compound?
Its T/C is 107 % of control.

Nc1ncnc2ccccc12 was tested. Which T/C (dose: 12.5 mg/kg/injection, schedule: Q01DX009 (ip), vehicle: Klucel (hydroxypropylcellulose) (HPC)) did it give?
The T/C was 107 % of control.

What about the T/C (dose: 25.0 mg/kg/injection, schedule: Q01DX009 (ip), vehicle: Klucel (hydroxypropylcellulose) (HPC)) of the same compound?
The T/C was 89 % of control.

What about the T/C [4] of the same compound?
Its T/C is 108 % of control and 89 % of control.

What about the T/C [5] of the same compound?
Its T/C is 108 % of control.

Which T/C [1] does the source give for Clc1ccc(CN2CCCN(Cc3ccc(Cl)cc3)C2c2cc3ccccc3c3ccccc23)cc1 here?
Its T/C is 99 % of control.

What about the T/C [2] of the same compound?
Its T/C is 97 % of control.

What about the T/C [3] of the same compound?
Its T/C is 93 % of control.

What does the source list for O=C(NCCCl)Nc1ccnc(=O)[nH]1?
T/C [1]: 107 % of control; T/C [2]: 107 % of control; T/C [3]: 111 % of control

Which results are given for COc1cccc2c1C(=O)c1c(O)c3c(c(O)c1C2=O)C[C@@](O)(c1csc(-c2ccccc2)n1)C[C@@H]3OC1CC(N)C(O)C(C)O1 (stereo partly drawn)?
T/C (dose: 1.56 mg/kg/injection, schedule: Q01DX009 (ip), vehicle: water): 174 % of control; T/C (dose: 3.13 mg/kg/injection, schedule: Q01DX009 (ip), vehicle: water): 165 % of control; T/C (dose: 6.25 mg/kg/injection, schedule: Q01DX009 (ip), vehicle: water): 182 % of control
